Results as given in US3997557A, “Substituted N-aminoalkylpyrroles” (American Hoechst Corporation, priority 1974, dated 1976).
Counter-ions that a name gives are not always drawn.

System: carrageenin-induced rat paw edema
Assay: Carrageenin-induced rat paw edema antiinflammatory assay
Type: in vivo
Settings: 200 mg/kg of body weight
Description: The compounds of this invention are useful as antiinflammatory agents because of their ability to suppress inflammation in mammals. […] Exp. Biol. Med. III, 544 (1962)].

Q: For CN(C)CCCn1c(-c2ccccc2)cc2c1CCCC2 [Example 6, 1-(3-dimethylaminopropyl)-2-phenyl-4,5,6,7-tetrahydroindole . HCl], which inhibition in vivo at 200 mg/kg is on record?
A: 45%

Q: With CC(CN(C)C)n1c(-c2cccc(C(F)(F)F)c2)cc2c1CCCC2 (centres unmarked) [1-(1-methyl-2-dimethylaminoethyl)-2(m-trifluoromethylphenyl)-4,5,6,7-tetrahydroindole . HCl] as the compound, how does the inhibition in vivo at 200 mg/kg read?
A: 46%

Q: With CNCCn1c(-c2cccc(C(F)(F)F)c2)cc2c1CCCC2 [1-(2-methylaminoethyl)-2-(m-trifluoromethylphenyl)-4,5,6,7-tetrahydroindole] as the compound, how does the inhibition in vivo at 200 mg/kg read?
A: 58%

Q: CN(C)CCCn1c(-c2ccc(Cl)cc2)cc2c1CCCC2 [1-(3-dimethylaminopropyl)-2-(p-chlorophenyl)-4,5,6,7-tetrahydroindole] was tested. Which inhibition in vivo at 200 mg/kg did it give?
A: 44%

System: central nervous system
Assay: Mouse observation procedure of S. Irwin, central nervous system depressant effects (tranquilizer)
Type: in vivo
Settings: male COBS mice, behavior and reflex depression, muscle relaxation, read-out: minimum effective dose (MED)/Kilogram of body weight
Method: The compounds of the invention are useful as tranquilizers because of their depressant effects on the central nervous system. The depressant effects on the central nervous system were evaluated according to the mouse observation procedure of S. Irwin, Psychopharmacologia, 13, 222 (1968). Male COBS mice are dosed with the drug, and its effects on behavior and reflex depression together with muscle relaxation determined by the degree of deviation from control scores, with activity expressed in terms of minimum effective dose (MED). The effectiveness of compounds of the invention as tranquilizers is illustrated in Table I below.

Q: Which minimal effective dose does the source give for CN(C)CCCn1c(-c2cccc(C(F)(F)F)c2)cc2c1CCCC2 [1-(3-dimethylaminopropyl)-2-(m-trifluoromethylphenyl)-4,5,6,7-tetrahydroindole] here?
A: 40 mg/kg

Q: For CNCCCn1c(-c2ccccc2)cc2c1CCC2.O=C(O)C(=O)O [Example 34, 1-(3-methylaminopropyl)-2-phenyl-1,4,5,6-tetrahydrocyclopenta[b]pyrrole oxalate], which minimal effective dose is on record?
A: 25 mg/kg

Q: With CC(C)NC(C)Cn1c(-c2ccc(Cl)cc2)cc2c1CCCC2.Cl (centres unmarked) [Example 21, 1-(2-isopropylaminopropyl)-2-(p-chlorophenyl)-4,5,6,7-tetrahydroindole hydrochloride] as the compound, how does the minimal effective dose read?
A: 50 mg/kg

Q: CN(C)CCCn1c(-c2ccc(N)cc2)cc2c1CCCCCC2.O.O=C(O)C(=O)O.O=C(O)C(=O)O [Example 59, 1-(3-dimethylaminopropyl)-2-(p-aminophenyl)-4,5,6,7,8,9-hexahydrocycloocta[b]pyrrole dioxalate monohydrate] was tested. Which minimal effective dose did it give?
A: 25 mg/kg

Q: For c1ccc(-c2cc3c(n2CCN2CCNCC2)CCCC3)cc1 [Example 5, 1-[2-(1-piperazinylethyl)]-2-phenyl-4,5,6,7-tetrahydroindole . dioxalate], which minimal effective dose is on record?
A: 10 mg/kg

Q: With CN(C)CCCn1c(-c2ccc(F)cc2)cc2c1CCCCC2.Cl [Example 55, 1-(3-dimethylaminopropyl)-2-(p-fluorophenyl)-1,4,5,6,7,8-hexahydrocyclohepta[b]pyrrole hydrochloride] as the compound, how does the minimal effective dose read?
A: 50 mg/kg

Q: With CCNCCn1c(-c2ccccc2)cc2c1CCCC2 [Example 3, 1-(2-ethylaminoethyl)-2-phenyl-4,5,6,7-tetrahydroindole . oxalate] as the compound, how does the minimal effective dose read?
A: 25 mg/kg

Q: With CN(C)CCCn1c2c(c(-c3ccccc3)c1-c1ccccc1)CCCC2.O.O=C(O)C(=O)O [Example 28, 1-(3-dimethylaminopropyl)-2,3-diphenyl-4,5,6,7-tetrahydroindole oxalate monohydrate] as the compound, how does the minimal effective dose read?
A: 25 mg/kg

Q: With CCNCCn1c(-c2ccccc2)cc2c1CCCCCC2.O=C(O)C(=O)O [Example 57, 1-(2-ethylaminoethyl)-2-phenyl-4,5,6,7,8,9-hexahydrocycloocta[b]pyrrole oxalate] as the compound, how does the minimal effective dose read?
A: 25 mg/kg

Q: How did the minimal effective dose turn out when CCN(CC)CCCn1c(-c2ccccc2)cc2c1CCc1ccccc1-2 [1-(3-diethylaminopropyl)-2-phenyl-4,5-dihydrobenz[e]-indole] was run?
A: 20 mg/kg

Q: CNCCCn1c(-c2ccc(OC)cc2)cc2c1CCCCC2.O=C(O)C(=O)O [Example 49, 1-(3-methylaminopropyl)-2-(p-methoxyphenyl)-1,4,5,6,7,8-hexahydrocyclohepta[b]-pyrrole oxalate] was tested. Which minimal effective dose did it give?
A: 10 mg/kg

Q: Which minimal effective dose does the source give for CC(C)NCCCn1c(-c2ccccc2)cc2c1CCCCC2 [Example 43, 1-(3-isopropylaminopropyl)-2-phenyl-1,4,5,6,7,8-hexahydrocyclohepta[b]pyrrole . oxalate] here?
A: 37 mg/kg

Q: How did the minimal effective dose turn out when COc1cc(-c2cc3c(n2CCCN(C)C)CCCCC3)cc(OC)c1OC.Cl [Example 54, 1-(3-dimethylaminopropyl)-2-(3,4,5-trimethoxyphenyl)-1,4,5,6,7,8-hexahydrocyclohepta[b]pyrrole hydrochloride] was run?
A: 50 mg/kg
